Laboratory results published in ChEMBL document CHEMBL1151820, “Antagonists of the P2X(7) receptor. From lead identification to drug development” (J Med Chem, 2009).

Legend:
P2X purinoceptor 7 [1] = target: T1, P2X purinoceptor 7 (Homo sapiens, UniProt Q99572); assay: Antagonist activity at P2X7 receptor in human THP1 cells assessed as effect on BzATP-induced Yo-Pro uptake; assay type: functional, cell-based, THP-1
T1 sequence (Q99572 whole entry): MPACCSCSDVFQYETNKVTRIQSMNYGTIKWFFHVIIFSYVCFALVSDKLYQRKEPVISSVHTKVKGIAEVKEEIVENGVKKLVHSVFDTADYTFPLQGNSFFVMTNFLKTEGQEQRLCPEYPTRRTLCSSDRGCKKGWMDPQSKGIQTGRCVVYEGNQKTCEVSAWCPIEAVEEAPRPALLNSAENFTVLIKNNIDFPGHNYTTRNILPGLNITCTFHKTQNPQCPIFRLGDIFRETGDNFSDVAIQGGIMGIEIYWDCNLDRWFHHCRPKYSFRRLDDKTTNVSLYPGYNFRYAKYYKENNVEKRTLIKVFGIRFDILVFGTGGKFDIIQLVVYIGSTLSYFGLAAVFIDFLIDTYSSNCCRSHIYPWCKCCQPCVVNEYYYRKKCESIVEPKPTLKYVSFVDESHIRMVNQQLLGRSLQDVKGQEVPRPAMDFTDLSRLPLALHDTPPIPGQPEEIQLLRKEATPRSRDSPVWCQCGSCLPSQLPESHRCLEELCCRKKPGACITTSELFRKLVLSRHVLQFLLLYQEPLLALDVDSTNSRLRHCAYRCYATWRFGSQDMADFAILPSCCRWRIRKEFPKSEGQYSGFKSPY

P2X purinoceptor 7 [2] = target: T1, P2X purinoceptor 7; assay: Antagonist activity at human P2X7 receptor expressed in HEK293 cells assessed as inhibition of BzATP-induced calcium influx; assay type: functional, cell-based
P2X purinoceptor 7 [3] = target: T2, P2X purinoceptor 7 (Rattus norvegicus, UniProt Q64663); assay: Activity at rat P2X7 receptor expressed in HEK cells assessed as effect on BzATP-induced ethidium uptake; assay type: cell-based, HEK293
T2 sequence (Q64663 whole entry): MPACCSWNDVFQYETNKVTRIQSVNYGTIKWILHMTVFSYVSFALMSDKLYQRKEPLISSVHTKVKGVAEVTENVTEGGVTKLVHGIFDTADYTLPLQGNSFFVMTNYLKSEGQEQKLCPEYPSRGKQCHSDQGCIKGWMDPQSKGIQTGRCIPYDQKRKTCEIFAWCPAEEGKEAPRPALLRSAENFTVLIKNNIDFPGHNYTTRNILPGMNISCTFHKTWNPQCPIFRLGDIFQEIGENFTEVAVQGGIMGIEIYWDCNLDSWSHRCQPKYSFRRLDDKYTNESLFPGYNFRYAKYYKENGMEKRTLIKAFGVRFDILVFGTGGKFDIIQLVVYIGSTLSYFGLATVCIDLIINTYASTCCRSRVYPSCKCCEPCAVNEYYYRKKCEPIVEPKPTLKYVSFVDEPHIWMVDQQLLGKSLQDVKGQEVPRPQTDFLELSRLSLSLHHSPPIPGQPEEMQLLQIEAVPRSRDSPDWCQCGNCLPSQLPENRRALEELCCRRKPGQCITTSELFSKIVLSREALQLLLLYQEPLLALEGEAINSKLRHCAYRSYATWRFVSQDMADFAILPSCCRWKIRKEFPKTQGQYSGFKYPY

P2X purinoceptor 7 [4] = target: T1, P2X purinoceptor 7; assay: Antagonist activity at P2X7 receptor in human THP1 cells assessed as inhibition of BzATP-induced ethidium uptake; assay type: functional, cell-based, THP-1
P2X purinoceptor 7 [5] = target: T1, P2X purinoceptor 7; assay: Antagonist activity at P2X7 receptor in human lymphocytes assessed as inhibition of ATP-induced Ba2+ influx; assay type: functional, cell-based
[6] = Half life in rat; assay type: ADME, organism-based; settings: in vivo
[7] = Metabolic stability in rat hepatocytes assessed as intrinsic clearance assessed per million cells; assay type: ADME, cell-based, Liver, Hepatocyte
[8] = Plasma clearance in rat; assay type: ADME, organism-based
[9] = Volume of distribution at steady state in rat; assay type: ADME, organism-based; settings: in vivo, read-out: Vdss
[10] = Volume of distribution at steady state in iv dosed rat; assay type: ADME, organism-based; settings: in vivo, read-out: Vdss
[11] = Plasma clearance in iv dosed rat; assay type: ADME, organism-based
[12] = Half life in iv dosed rat; assay type: ADME, organism-based; settings: in vivo
[13] = Metabolic stability in human liver microsomes assessed as half life; assay type: ADME, Microsome
[14] = Oral bioavailability in rat; assay type: ADME, organism-based; settings: in vivo
[15] = target: T3, P2X purinoceptor 7 (Homo sapiens) (UniProt Q99572); assay: Inhibition of human P2X7 receptor in human PBMC assessed as inhibition of BzATP-induced IL1-beta release at 0.3 uM
T3 sequence (whole entry): T1 sequence (Q99572 whole entry)

Mus musculus = assay: In vivo receptor activity at P2X7 receptor in mouse model assessed as ATP-induced IL1-beta release; assay type: functional
[16] = target: T3, P2X purinoceptor 7 (Homo sapiens); settings: HEK293, at 3 µM
[17] = Bioavailability in rat; assay type: ADME, organism-based; settings: in vivo
P2X purinoceptor 7 [18] = target: T1, P2X purinoceptor 7; assay: Antagonist activity at human P2X7 receptor expressed in HEK293 cells assessed as inhibition of ATP-induced ethidium uptake
P2X purinoceptor 7 [19] = target: T1, P2X purinoceptor 7; assay: Inhibition of human P2X7 receptor assessed as inhibition of BzATP-induced IL1-beta release
P2X purinoceptor 7 [20] = target: T1, P2X purinoceptor 7; assay: Antagonist activity at human P2X7 receptor expressed in human U373 cells assessed as inhibition of BzATP-induced Yo-Pro uptake; assay type: functional, cell-based, U-373MG ATCC

For `Cc1cc(-c2ccc(Cl)c(C(=O)NCC3(O)CCCCCC3)c2)nn1CC(=O)NCCN(C)C`, which IC50 (P2X purinoceptor 7 [1]) is on record?
Its IC50 is 3.16 nM.

With `CN([C@@H](Cc1ccc(OS(=O)(=O)c2cccc3cnccc23)cc1)C(=O)N1CCN(c2ccc(F)cc2)CC1)S(=O)(=O)c1cccc2cnccc12` as the molecule, how does the IC50 (P2X purinoceptor 7 [2]) read?
The IC50 was 1.26 nM.

Which IC50 (P2X purinoceptor 7 [2]) does the source give for `O=C(CNS(=O)(=O)c1cccc2cnccc12)N1CCN(c2ccc(F)cc2)CC1` here?
The IC50 was 63.1 nM.

What does the source list for `Cc1ccccc1Nc1ncnn1-c1cccc(Cl)c1Cl`?
IC50 (P2X purinoceptor 7 [3]): 251 nM; IC50 (P2X purinoceptor 7 [4]): 20 nM

For `CN([C@@H](Cc1ccc(OS(=O)(=O)c2cccc3cnccc23)cc1)CN1CCN(c2ccccc2)CC1)S(=O)(=O)c1cccc2cnccc12`, which IC50 (P2X purinoceptor 7 [5]) is on record?
The IC50 was 15.8 nM.

For `Clc1cccc(-n2cnnc2NCc2cccnc2N2CCCC2)c1Cl`, which IC50 (P2X purinoceptor 7 [3]) is on record?
The IC50 was 12.6 nM.

And the IC50 (P2X purinoceptor 7 [4])?
The IC50 was 15.8 nM.

With `O=C(CC12CC3CC(CC(C3)C1)C2)Nc1ccccc1` as the molecule, how does the half-life [6] read?
The half-life was 1 h.

And the Kb (P2X purinoceptor 7 [4]; read-out: pA2 (converted))?
The Kb was 39.8 nM.

What about the hepatocyte CLint [7] of the same molecule?
The hepatocyte CLint was 5 µL/min/1e6 cells.

What about the clearance [8] of the same molecule?
The clearance was 47 mL/min/kg.

And the Vd [9]?
Its Vd is 2 L/kg.

With `O=C(NCC12CC3CC(CC(C3)C1)C2)c1ccccc1Cl` as the molecule, how does the hepatocyte CLint [7] read?
Its hepatocyte CLint is over 100 µL/min/1e6 cells.

With `Cc1ccccc1N=C(NC#N)N1CCN(C(=O)Nc2ccc(Cl)cc2)C(c2ccccc2)C1` (stereo unspecified) as the molecule, how does the Vd [10] read?
Its Vd is 5.3 L/kg.

What about the clearance [11] of the same molecule?
The clearance was 68 mL/min/kg.

And the half-life [12]?
The half-life was 0.9 h.

For `O=C(NNc1cccc2ncccc12)C12CC3CC(CC(C3)C1)C2`, which IC50 (P2X purinoceptor 7 [3]) is on record?
The IC50 was 39.8 nM.

What about the IC50 (P2X purinoceptor 7 [4]) of the same molecule?
The IC50 was 10 nM.

Which half-life [13] does the source give for `Cc1ccc2c(=O)n([C@H](C)CO)ccc2c1NC(=O)Cc1ccc(C(F)(F)F)c(F)c1` here?
Its half-life is 1.5 h.

What about the bioavailability [14] of the same molecule?
Its bioavailability is 25%.

For `CN([C@@H](Cc1ccc(OS(=O)(=O)c2cccc3cnccc23)cc1)C(=O)N1CCN(Cc2ccccc2)CC1)S(=O)(=O)c1cccc2cnccc12`, which IC50 (P2X purinoceptor 7 [2]) is on record?
Its IC50 is 20 nM.

With `Cc1ccc(-c2ccc(Cl)c(C(=O)NCC3(O)CCCC(C)(C)C3)c2)nc1` (stereo unspecified) as the molecule, how does the IC50 (P2X purinoceptor 7 [1]) read?
The IC50 was 10 nM.

With `CC(C)(C)OC(=O)NCC(=O)N1CCc2c(ncnc2NCC(O)C23CC4CC(CC(C4)C2)C3)C1` (stereo unspecified) as the molecule, how does the inhibition [15] read?
Its inhibition is over 75%.

For `O=C(CNS(=O)(=O)c1cccc2cnccc12)N1CCN(c2ccccc2F)CC1`, which IC50 (P2X purinoceptor 7 [2]) is on record?
The IC50 was 12.6 nM.

With `O=C(CC12CC3CC(CC(C3)C1)C2)Nc1ncnc2c1CCN(S(=O)(=O)c1ccc(F)cc1F)C2` as the molecule, how does the inhibition [15] read?
Its inhibition is over 75%.

Which IC50 (P2X purinoceptor 7 [2]) does the source give for `CN([C@@H](Cc1ccc(OS(=O)(=O)c2cccc3cnccc23)cc1)C(=O)N1CCC(Cc2ccccc2)CC1)S(=O)(=O)c1cccc2cnccc12` here?
The IC50 was 63.1 nM.

Which ED50 (Mus musculus) does the source give for `O=C(NCC1(O)CCCCCC1)c1cc(-n2ncc(=O)[nH]c2=O)ccc1Cl` here?
The ED50 was 2 mg/kg.

What about the IC50 (P2X purinoceptor 7 [4]) of the same molecule?
Its IC50 is 100 nM.

With `Clc1cccc(-n2ncnc2NCc2cccnc2N2CCCC2)c1Cl` as the molecule, how does the IC50 (P2X purinoceptor 7 [3]) read?
The IC50 was 25.1 nM.

For `CN([C@@H](Cc1ccc(OS(=O)(=O)c2cccc3cnccc23)cc1)C(=O)N1CCN(c2ccccc2)CC1)S(=O)(=O)c1cccc2cnccc12`, which IC50 (P2X purinoceptor 7 [5]) is on record?
The IC50 was 12.6 nM.

And the IC50 (P2X purinoceptor 7 [2])?
Its IC50 is 50.1 nM.

And the inhibition [16]?
The inhibition was 85%.

Which half-life [6] does the source give for `O=C(NCCc1ccccc1Cl)c1cc(-n2ncc(=O)[nH]c2=O)ccc1Cl` here?
The half-life was 3 h.

What about the ED50 (Mus musculus) of the same molecule?
The ED50 was 20 mg/kg.

What about the IC50 (P2X purinoceptor 7 [4]) of the same molecule?
The IC50 was 316 nM.

What about the bioavailability [17] of the same molecule?
The bioavailability was 44%.

What about the clearance [8] of the same molecule?
Its clearance is 9 mL/min/kg.

And the Vd [9]?
Its Vd is 0.3 L/kg.

What does the source list for `Cc1n[nH]c(C)c1CC(=O)NCc1ccc(F)c(C(F)(F)F)c1`?
pIC50 (P2X purinoceptor 7 [2]; hek293): > 4.7; IC50 (P2X purinoceptor 7 [18]): < 3160 nM

For `O=C(NCC12CC3CC(CC(C3)C1)C2)c1cc(Cl)ccc1Cl`, which half-life [6] is on record?
The half-life was 0.5 h.

And the hepatocyte CLint [7]?
Its hepatocyte CLint is over 100 µL/min/1e6 cells.

And the clearance [8]?
Its clearance is 100 mL/min/kg.

What about the Vd [9] of the same molecule?
The Vd was 3 L/kg.

With `Cc1ccc2c(N/C(=N\C#N)N3CCN(C(=O)c4ccc(Cl)cc4)CC3C(C)C)cccc2n1` (stereo unspecified) as the molecule, how does the Vd [10] read?
Its Vd is 11.8 L/kg.

What about the clearance [11] of the same molecule?
Its clearance is 23 mL/min/kg.

What about the bioavailability [14] of the same molecule?
Its bioavailability is 5%.

What about the half-life [12] of the same molecule?
The half-life was 4.4 h.

For `Fc1cccc(CNC2=N[C@@H](c3cccc(F)c3)[C@@H](c3cccc(F)c3)N2)c1`, which IC50 (P2X purinoceptor 7 [19]) is on record?
Its IC50 is 1260 nM.

And the IC50 (P2X purinoceptor 7 [20])?
The IC50 was 63.1 nM.
